Measured values reported in ChEMBL document CHEMBL1201862, “PubChem BioAssay data set” (2004).
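Growth conditions: 96-well plates. Treatment: test compound, 48 hours, 5 concentrations. Analysis: linear interpolation between bracketing concentrations; unreached endpoints set to highest concentration. GI50 is the concentration that inhibits growth by half.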 Calls of active or inactive are those of the source. Rule as the data show it: active = GI50 up to about 1.1 µM and inactive = higher.

Key:
Assay in all cases: inhibition of tumour cell growth, NCI panel, 48 h
HOP-62 = system: HOP-62
U-251 = system: U-251
SF-295 = system: SF-295
NCI-H522 = system: NCI-H522
A498 = system: A498
LOX IMVI = system: LOX IMVI
UO-31 = system: UO-31
DMS-114 = system: DMS-114
KM12 = system: KM12
K562 = system: K562
SNB-75 = system: SNB-75
SF-539 = system: SF-539
SNB-19 = system: SNB-19
OVCAR-3 = system: OVCAR-3
Malme-3M = system: Malme-3M
HCT-15 = system: HCT-15
OVCAR-4 = system: OVCAR-4
M19-MEL = system: M19-MEL

Row | Compound | GI50 (HOP-62) | GI50 (U-251) | GI50 (SF-295) | GI50 (NCI-H522) | GI50 (A498) | GI50 (LOX IMVI) | GI50 (UO-31) | GI50 (DMS-114) | GI50 (KM12) | GI50 (K562) | GI50 (SNB-75) | GI50 (SF-539) | GI50 (SNB-19) | GI50 (OVCAR-3) | GI50 (Malme-3M) | GI50 (HCT-15) [µM] | GI50 (OVCAR-4) | GI50 (M19-MEL)
1 | C=C(C)C1CC=C(C)CC1 (stereo unspecified) | 883 µM (inactive) | 787 µM (inactive) | 925 µM (inactive) | 989 µM (inactive) | 906 µM (inactive) | 897 µM (inactive) | 925 µM (inactive) | 891 µM (inactive) | 1020 µM (inactive) | 813 µM (inactive) | 865 µM (inactive) | 899 µM (inactive) | 906 µM (inactive) | 891 µM (inactive) | 885 µM (inactive) | 891 | 964 µM (inactive) | 879 µM (inactive)
2 | COc1ccc(C2NC(c3ccc(OC)cc3)C(C)C(=O)C2C)cc1 (stereo unspecified) | > 100 µM (inactive) | > 100 µM (inactive) | > 100 µM (inactive) | > 100 µM (inactive) | > 100 µM (inactive) | > 100 µM (inactive) | 60 µM (inactive) | 64.4 µM (inactive) | > 100 µM (inactive) | 42.7 µM (inactive) | 34 µM (inactive) | > 100 µM (inactive) | > 100 µM (inactive) | > 100 µM (inactive) | > 100 µM (inactive) | > 100 | > 100 µM (inactive) | > 100 µM (inactive)
3 | CCN(CC)CCC1(C2CCCCC2)CCC(=O)NC1=O (stereo unspecified) | > 100 µM (inactive) | > 100 µM (inactive) | > 100 µM (inactive) | > 100 µM (inactive) | > 100 µM (inactive) | > 100 µM (inactive) | > 100 µM (inactive) | > 100 µM (inactive) | > 100 µM (inactive) | > 100 µM (inactive) | > 100 µM (inactive) | > 100 µM (inactive) | > 100 µM (inactive) | > 100 µM (inactive) | > 100 µM (inactive) | > 100 | > 100 µM (inactive) | > 100 µM (inactive)
4 | COc1ccc2c(c1)[n+]([O-])c(-c1ccc(Cl)c(Cl)c1)c(N)[n+]2[O-] | 60.8 µM (inactive) | 35.1 µM (inactive) | 78.3 µM (inactive) | 14.3 µM (inactive) | 47.5 µM (inactive) |  | 39.7 µM (inactive) | 16.3 µM (inactive) | 34.3 µM (inactive) | 40.7 µM (inactive) | 44.7 µM (inactive) | 23 µM (inactive) | > 100 µM (inactive) | 26.1 µM (inactive) | 23.6 µM (inactive) | 33.3 | 28.7 µM (inactive) | 28.8 µM (inactive)
5 | CCOc1cc2c(C(=O)CC)c(O)ccc2o1 | > 100 µM (inactive) | > 100 µM (inactive) | > 100 µM (inactive) | > 100 µM (inactive) | > 52.7 µM (inactive) | > 100 µM (inactive) | > 100 µM (inactive) | > 54.5 µM (inactive) | > 100 µM (inactive) | 28.8 µM (inactive) | > 91 µM (inactive) | > 100 µM (inactive) | > 100 µM (inactive) | > 100 µM (inactive) | > 100 µM (inactive) | > 100 | > 40.8 µM (inactive) | 31.1 µM (inactive)
6 | COc1cc2cnc3c4cc(O)ccc4ccc3c2cc1OC | 36.8 µM (inactive) | 10.8 µM (inactive) | 92.7 µM (inactive) | 15.6 µM (inactive) |  | 42.6 µM (inactive) | > 100 µM (inactive) | 6.3 µM (inactive) | 51.4 µM (inactive) | 19.7 µM (inactive) | 22.6 µM (inactive) | 63 µM (inactive) | 30.7 µM (inactive) | 17.6 µM (inactive) | 51.1 µM (inactive) | > 100 | 26.7 µM (inactive) | 24.7 µM (inactive)
